Here are results for seven compounds from patent US20250195521A1 (Revolution Medicines, Inc., priority 2020, published 2025).

The test system of assay [1] is SW1573. As to conditions: Canon et al. 2019; cited from earlier work.
The test system of assay [2] is SW1573. As to conditions: cited from earlier work.
A further assay has as its system SW1573 cells. Conditions: cited from earlier work.
Assay [3] deals with KRAS G13C binding to BRAF RBD (Homo sapiens (Human), UniProt P01116+P62937, G13C). The experiment in a line: Ras-Raf disruption/FRET/MOA assay, KRAS G13C. Format: biochemical. An excerpt: Disruption of B-Raf Ras-binding Domain (BRAF^RBD) Interaction with K-Ras by Compounds of the Invention (also called a FRET assay or an MOA assay)
KRAS G13C binding to BRAF RBD, sequence (P01116 other isoform, or with tags, fused parts or gaps G13C): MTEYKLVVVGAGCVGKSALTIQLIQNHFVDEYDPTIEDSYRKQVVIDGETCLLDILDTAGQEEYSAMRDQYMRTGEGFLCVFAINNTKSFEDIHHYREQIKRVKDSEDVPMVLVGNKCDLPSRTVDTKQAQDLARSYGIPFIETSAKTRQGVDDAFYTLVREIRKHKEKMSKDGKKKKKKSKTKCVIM
KRAS G13C binding to BRAF RBD, sequence (P62937 whole entry, the tested form may be a part): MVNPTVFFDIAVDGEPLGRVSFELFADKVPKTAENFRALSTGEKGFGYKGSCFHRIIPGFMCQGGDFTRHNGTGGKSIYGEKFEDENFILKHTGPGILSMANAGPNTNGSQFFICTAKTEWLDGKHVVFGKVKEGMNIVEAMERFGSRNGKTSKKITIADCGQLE
Note—The following protocol describes a procedure for monitoring disruption of K-Ras G12C(GMP-PNP) binding to BRAF^RBD by a compound of the invention. This protocol may also be executed substituting other Ras proteins or nucleotides.
The purpose of this biochemical assay was to measure the ability of test compounds to facilitate ternary complex formation between a nucleotide-loaded K-Ras isoform and Cyclophilin A; the resulting ternary complex disrupts binding to a BRAF^RBD construct, inhibiting K-Ras signaling through a RAF effector. Data is reported as IC50 values.
In assay buffer containing 25 mM HEPES pH 7.3, 0.002% Tween20, 0.1% BSA, 100 mM NaCl and 5 mM MgCl2, tagless Cyclophilin A, His6-K-Ras-GMPPNP, and GST-BRAF^RBD were combined in a 384-well assay plate at final concentrations of 25 μM, 12.5 nM and 50 nM, respectively. Compound was present in plate wells as a 10-point 3-fold dilution series starting at a final concentration of 30 μM. After incubation at 25° C. for 3 hours, a mixture of Anti-His Eu—W1024 and anti-GST allophycocyanin was then added to assay sample wells at final concentrations of 10 nM and 50 nM, respectively, and the reaction incubated for an additional 1.5 hours. […] Compounds that facilitate disruption of a K-Ras: RAF complex were identified as those eliciting a decrease in the TR-FRET ratio relative to DMSO control wells.

For assay [4], the target named is NRAS G12C binding to BRAF RBD (Homo sapiens (Human), UniProt P01111+P62937, G12C). Nature of the assay: Ras-Raf disruption/FRET/MOA assay, NRAS G12C. Type of assay: biochemical. In outline: (§1)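 TR-FRET ratio drop relative to DMSO wells marks disruption of the Ras–RAF complex, reported as IC50. Compounds promote a Ras(nucleotide)–cyclophilin A ternary complex that blocks BRAF RBD binding; dosing was 10 points, 3-fold, top 30 μM final, 3 h at 25° C before detection.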
NRAS G12C binding to BRAF RBD, sequence (P01111 whole entry G12C): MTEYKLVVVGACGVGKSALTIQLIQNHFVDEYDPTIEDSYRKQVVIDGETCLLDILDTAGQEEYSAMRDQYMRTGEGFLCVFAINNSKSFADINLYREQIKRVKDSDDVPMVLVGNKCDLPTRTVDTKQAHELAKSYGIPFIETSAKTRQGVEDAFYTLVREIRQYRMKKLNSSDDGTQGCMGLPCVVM
NRAS G12C binding to BRAF RBD, sequence (P62937 whole entry): as the sequence (P62937 whole entry, the tested form may be a part) above

The target of assay [5] is K-Ras G12C(GMP-PNP) binding to BRAF RBD (Homo sapiens (Human), UniProt P01116+P62937, G12C). Nature of the assay: Disruption of BRAF RBD interaction with K-Ras (FRET / MOA assay), K-Ras G12C. Format: biochemical. As to conditions: read-out: KRAS G12C FRET IC50. The essentials: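 Cpd 10-pt 3-fold dilution, top 30 μM final; Ras/CypA/BRAF RBD mix 3 h, 25° C. Add anti-His Eu-W1024 10 nM + anti-GST APC 50 nM final, 1.5 h. Readout TR-FRET ratio decrease vs DMSO → IC50.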
K-Ras G12C(GMP-PNP) binding to BRAF RBD, sequence (P01116 other isoform, or with tags, fused parts or gaps G12C): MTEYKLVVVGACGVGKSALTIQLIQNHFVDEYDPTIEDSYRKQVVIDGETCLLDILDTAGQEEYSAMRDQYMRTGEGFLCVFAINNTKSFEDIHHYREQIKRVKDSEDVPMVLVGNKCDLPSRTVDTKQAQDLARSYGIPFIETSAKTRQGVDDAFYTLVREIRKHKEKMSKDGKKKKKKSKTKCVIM
K-Ras G12C(GMP-PNP) binding to BRAF RBD, sequence (P62937 whole entry): as the sequence (P62937 whole entry, the tested form may be a part) above

Assay [6] relates to K-Ras G12C (NCI-H358 cells). The experiment in a line: Potency assay: pERK in NCI-H358 cells. Conditions: Homo sapiens; NCI-H358 cells, 4 hours; read-out: pERK EC50 (H358 KRAS G12C). Format: cell-based, human. In outline: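 Cells plated the day before were exposed for 4 h at 37° C, 5% CO2 to a 10-point, 3-fold DMSO dilution series (10 mM top stock), in duplicate. Phospho-ERK was read by AlphaLISA SureFire Ultra or by In-Cell Western with DRAQ5 DNA stain, and IC50 came from a 4-parameter sigmoidal fit.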

For another assay, the system named is NCI-H358 (K-Ras G12C). The experiment in a line: CellTiter-Glo cell viability assay, NCI-H358. Format: cell-based, human. As to conditions: Homo sapiens, NCI-H358, 120 h, 5-day treatment; read-out: H358 Cell Viability assay data (K-Ras G12C, IC50). In outline: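 After direct compound addition, plates were incubated to day 5 and equilibrated at room temperature for about 30 minutes before CellTiter-Glo reading. Values derive from luminescence relative to the DMSO mean, fitted with a four-parameter logistic model.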
(In general: Cellular ATP, detected with luciferase, serves as a proxy for viable cell number.)

The target of assay [7] is KRAS WT binding to BRAF RBD (Homo sapiens (Human), UniProt P01116+P62937). The experiment in a line: Ras-Raf disruption/FRET/MOA assay, KRAS WT. Format: biochemical. In outline: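 Compounds (top 30 μM, 3-fold, 10 points) promote Cyclophilin A (25 μM) ternary complex with His6-Ras-GMPPNP (12.5 nM), disrupting GST-BRAF RBD (50 nM) binding; 3 h, 25°C, 25 mM HEPES pH 7.3, 100 mM NaCl, 5 mM MgCl2. Detection reagents (Eu anti-His 10 nM, APC anti-GST 50 nM) added for 1.5 h; IC50 reported.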
KRAS WT binding to BRAF RBD, sequence (P01116 other isoform, or with tags, fused parts or gaps): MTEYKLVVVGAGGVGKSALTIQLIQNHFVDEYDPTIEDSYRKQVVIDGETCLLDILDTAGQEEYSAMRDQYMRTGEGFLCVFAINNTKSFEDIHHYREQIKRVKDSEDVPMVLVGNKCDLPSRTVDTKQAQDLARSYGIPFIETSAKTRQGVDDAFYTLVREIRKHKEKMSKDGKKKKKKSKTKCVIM
KRAS WT binding to BRAF RBD, sequence (P62937 whole entry): as the sequence (P62937 whole entry, the tested form may be a part) above

Assay [8] addresses KRAS G12S binding to BRAF RBD (Homo sapiens (Human), UniProt P01116+P62937, G12S). The experiment in a line: Ras-Raf disruption/FRET/MOA assay, KRAS G12S. Type of assay: biochemical. The essentials:
as §1

Assay [9] deals with PAN02 tumors (SHP2 G503V). Nature of the assay: PAN02 syngeneic tumor model (Example 5). As to conditions: 100 mg/kg po qd and 250 mg/kg po qd. Format: in vivo, mouse. The method, then:
(§2) Mice were implanted with (A) PAN02 tumor cells (1e6 cells/mouse) or (B) LN229 tumor cells in 50% matrigel (10e6 cells/mouse) subcutaneously in the flank. Once tumors reached an average size of ˜200 mm^3 mice were randomized to treatment groups and administration of test article or vehicle (2% HPMC E-50, 0.5% Tween-80 in 50 mM Sodium Citrate Buffer, pH 4.0). Body weight and tumor volume (using digital calipers) were measured twice a week until study endpoints. Compounds were administered by oral gavage daily.

Another assay relates to LN229 tumors (SHP2 A72S). Nature of the assay: LN229 CDX xenograft model (Example 5). Format: in vivo, mouse. Conditions: 100 mg/kg po qd. As to the method:
as §2

Assay [10] deals with PAN02 tumors (SHP2 G503V). The experiment in a line: PAN02 syngeneic tumor model (Example 2). Format: in vivo, mouse. Conditions: PAN02, immunocompetent mice; Compound SOS1-(A) 100 mg/kg daily oral.
In assay [11] the test system is PAN02 tumors (PTPN11 G503V). The experiment in a line: PAN02 PTPN11 G503V syngeneic model (Example 12). Type of assay: in vivo, mouse. Conditions: PO daily; Compound SOS1-(C) 100 mg/kg for 7 days then 50 mg/kg, abemaciclib 30 mg/kg. The method, then: (§3) The combinatorial effects of Compound SOS1-(C) with Abemaciclib on tumor cell growth in vivo were evaluated in the murine pancreatic ductal adenocarcinoma PAN02 PTPN11G503V syngeneic model using female C57BL/6J mice (6-7 weeks old). Mice were implanted with PAN02 tumor cells in PBS (5 ×10^6cells/mouse) subcutaneously in the flank. Once tumors reached an average size of ˜130 mm3, mice were randomized to treatment groups to start the administration of test articles or control. All test articles were administered by oral gavage daily. Body weight and tumor volume (using calipers) was measured twice weekly until study endpoints.

Assay [12] has as its system NCI-H358 KRASG12C xenograft. Nature of the assay: In vivo NSCLC K-Ras G12C xenograft model. Further details: species or system BALB/c nude mice. As to conditions: single agent. As to the method: Mice were implanted with NCI-H358 tumor cells in 50% Matrigel (5×10^6 cells/mouse) subcutaneously in the flank. At the indicated tumor volume (dotted line, FIG. 2A), mice were randomized to treatment groups to start the administration of test articles or vehicle. […] Body weight and tumor volume (using calipers) was measured twice weekly until study endpoints.
Mice were implanted with NCI-H358 tumor cells in 50% Matrigel (5×10^6 cells/mouse) subcutaneously in the flank. At indicated tumor volume (dotted line, FIG. 3A), mice were randomized to treatment groups to start the administration of test articles or vehicle. […] Cobimetinib was administered by daily oral gavage at 2.5 mg/kg. The combination of Compound B and cobimetinib at their respective single-agent dose and regimen was also tested. Body weight and tumor volume (using calipers) was measured twice weekly until study endpoints.
Mice were implanted with NCI-H358 tumor cells in 50% Matrigel (5×10^6 cells/mouse) subcutaneously in the flank. At indicated tumor volume (dotted line, FIG. 4A), mice were randomized to treatment groups to start the administration of test articles or vehicle. […] Body weight and tumor volume (using calipers) was measured twice weekly until study endpoints.

The test system of assay [13] is LN229.E76K tumors (PTPN11 E76K). The experiment in a line: LN229.E76K glioblastoma xenograft (Example 11). Type of assay: in vivo, mouse. As to conditions: PO daily; Compound SOS1-(B) 50 mg/kg, cobimetinib 2.5, and combination. The method, then: The combinatorial effects of Compound SOS1-(B) with cobimetinib on tumor cell growth in vivo were evaluated in a human engineered model of PTPN11-mutant glioblastoma, LN229.E76K xenograft model using female athymic nude mice (6-7 weeks old). Mice were implanted with LN229.E76K tumor cells in 50% Matrigel (10×10^6cells/mouse) subcutaneously in the flank. Once tumors reached an average size of ˜200 mm3, mice were randomized to treatment groups to start the administration of test articles or control. All test articles were administered by oral gavage daily. Body weight and tumor volume (using calipers) was measured twice weekly until study endpoints.

For assay [14] the test system is unchanged. The experiment in a line: LN229.E76K glioblastoma xenograft (Example 8). Format: in vivo, mouse. As to conditions: PO daily; Compound SOS1-(C) 50 mg/kg, RMC-4550 30 mg/kg, cobimetinib […]. As to the method: 6-7 week athymic nude mice were implanted with LN229.E76K in 50% matirgel (10×10^6 cells/mouse) subcutaneously in the flank. Once tumors reached an average size of 200 mm^3, mice were randomized into treatment groups to start the administration of test articles or control. All treatments were administered daily by oral gavage. Body weight and tumor volume (using calipers) was measured twice weekly until study endpoint.

Assay [15] concerns PAN02 tumors (PTPN11 G503V). Nature of the assay: PAN02 PTPN11 G503V syngeneic model (Example 10). Type of assay: in vivo, mouse. As to conditions: PO daily. As to the method:
as §3, with “cobimetinib” for “Abemaciclib”, “mm^3,” for “mm3,”

The test system of the next assay is NCI-H358 cells. The experiment in a line: 72-hour proliferation assay using CellTiter-Glo, NCI-H358. Type of assay: cell-based, human. Conditions: read-out: EC50, 72-hour proliferation assay. The method, then:
The plate was placed in the Incucyte S3 live cell analysis system (37° C., 5% CO2) and confluence was measured by recording images at 6-hour intervals for a maximum of 40 days, or until wells reached maximal confluence. Media and drug were replaced at 3-4 day intervals. Data are plotted as % confluence over the time course of the experiment for each single agent and respective combination (FIG. 5).

The structures appear in SMILES notation. A value given as a limit tells only on which side of the number the result lay.

KRAS G12S binding to BRAF RBD, sequence (P01116 other isoform, or with tags, fused parts or gaps G12S): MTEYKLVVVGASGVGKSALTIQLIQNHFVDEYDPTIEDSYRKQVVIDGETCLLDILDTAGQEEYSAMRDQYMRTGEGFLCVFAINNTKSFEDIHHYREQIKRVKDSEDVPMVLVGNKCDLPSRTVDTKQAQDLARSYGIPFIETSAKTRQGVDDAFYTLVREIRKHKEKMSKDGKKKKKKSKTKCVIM
KRAS G12S binding to BRAF RBD, sequence (P62937 whole entry): as the sequence (P62937 whole entry, the tested form may be a part) above

Take `C=CC(=O)N1CCN(c2nc(=O)n(-c3c(C)ccnc3C(C)C)c3nc(-c4c(O)cccc4F)c(F)cc23)[C@@H](C)C1` [AMG510, sotorasib]: in the assay on SW1573 [1], the “sensitivity of SW1573” value is reported as “insensitive”. Besides, the “sensitivity of cell line” value with SW1573 [2] and in the assay on SW1573 cells was “insensitive” each time.

What is called IC50 is the concentration that gives 50% inhibition. For the compound `CCn1c(-c2cnccc2COC)c2c3cc(ccc31)-c1cc(O)cc(c1)C[C@H](NC(=O)[C@H](C(C)C)N(C)C(=O)[C@H]1CCN(C(=O)C#CCN(C)C)C1)C(=O)N1CCC[C@H](N1)C(=O)OCC(C)(C)C2` [Compound A107], the IC50 in [3] and in [4] was less than 10 nM in each case.

With `CCn1c(-c2cccnc2[C@H](C)OC)c2c3cc(ccc31)-c1csc(n1)C[C@H](NC(=O)[C@H](C(C)C)N(C)C(=O)N1CC(C)(OC)C1)C(=O)N1CCC[C@H](N1)C(=O)OCC(C)(C)C2` [Compound A299], the IC50 is less than 10 nM in [5]; less than 10 nM in assay [3]; less than 10 nM in the assay with NCI-H358 (K-Ras G12C); 10 to 100 nM in assay [7]; 10 to 100 nM in assay [8]. Also, in assay [6], the EC50 was less than 5000 nM.

Take `COC1(C(=O)N2Cc3nc(Cl)nc(C[C@H](C)c4cc(N)cc(C(F)(F)F)c4)c3C2)CCOCC1` [Compound SOS1-(A)]: the entries for the “inhibition of tumor growth in vivo” value (in assay [9]; in the assay on LN229 tumors (SHP2 A72S); in [10]) were “near complete inhibition of tumor growth”, “near complete inhibition of tumor growth” and “substantially higher levels of tumor growth inhibition”, respectively.

Regarding `CCN1CCN(Cc2ccc(Nc3ncc(F)c(-c4cc(F)c5nc(C)n(C(C)C)c5c4)n3)nc2)CC1` [abemaciclib], the “tumor growth inhibition (TGI)” value in assay [11] is recorded as 52%.

On to `O=C(c1ccc(F)c(F)c1Nc1ccc(I)cc1F)N1CC(O)([C@@H]2CCCCN2)C1` [cobimetinib], for which, in assay [12] (A 100 mg/kg po daily 28 days, B 50 mg/kg iv twice weekly, cobimetinib […] po daily, C 60 mg/kg iv once weekly), the tumor growth response entry was “tumor growth inhibition”. Also, the “mice with tumor regression (of 10)” value in assay [12] (regression = greater than 10% reduction of tumor volume, SHP2 inhibitor 30 mg/kg po daily) was “no tumor regressions”. The “tumor growth inhibition (TGI)” value in assay [13] is recorded as 62%; in assay [14], 41%; in assay [15] (Compound SOS1-(C) 100 mg/kg, cobimetinib […]), 38%; in assay [15] (cobimetinib 5 mg/kg), 49%.

Consider `CC(=O)Nc1cccc(-n2c(=O)n(C3CC3)c(=O)c3c(Nc4ccc(I)cc4F)n(C)c(=O)c(C)c32)c1` [trametinib], for which, in the assay on NCI-H358 cells, the EC50 amounted to 10 nM.
